Results taken from patent US20030207812A1, “Cd45 inhibitors” (priority 2002, published 2003).
Read-outs that look alike come from different tables or passages of the source.

How the values were obtained:
CD45 [1] = biological target: T1, CD45 (Homo sapiens, UniProt P08575); test: Phosphatase assay using pNPP as substrate; type: biochemical; details: read-out: pNPP IC50
T1 construct: incubating the cytosolic portion of CD45 with the compounds and p-nitrophenyl phosphate (pNPP); purchased BIOMOL (Plymouth Meeting, Pa.)
T1 sequence (P08575 599-1306 limits assumed): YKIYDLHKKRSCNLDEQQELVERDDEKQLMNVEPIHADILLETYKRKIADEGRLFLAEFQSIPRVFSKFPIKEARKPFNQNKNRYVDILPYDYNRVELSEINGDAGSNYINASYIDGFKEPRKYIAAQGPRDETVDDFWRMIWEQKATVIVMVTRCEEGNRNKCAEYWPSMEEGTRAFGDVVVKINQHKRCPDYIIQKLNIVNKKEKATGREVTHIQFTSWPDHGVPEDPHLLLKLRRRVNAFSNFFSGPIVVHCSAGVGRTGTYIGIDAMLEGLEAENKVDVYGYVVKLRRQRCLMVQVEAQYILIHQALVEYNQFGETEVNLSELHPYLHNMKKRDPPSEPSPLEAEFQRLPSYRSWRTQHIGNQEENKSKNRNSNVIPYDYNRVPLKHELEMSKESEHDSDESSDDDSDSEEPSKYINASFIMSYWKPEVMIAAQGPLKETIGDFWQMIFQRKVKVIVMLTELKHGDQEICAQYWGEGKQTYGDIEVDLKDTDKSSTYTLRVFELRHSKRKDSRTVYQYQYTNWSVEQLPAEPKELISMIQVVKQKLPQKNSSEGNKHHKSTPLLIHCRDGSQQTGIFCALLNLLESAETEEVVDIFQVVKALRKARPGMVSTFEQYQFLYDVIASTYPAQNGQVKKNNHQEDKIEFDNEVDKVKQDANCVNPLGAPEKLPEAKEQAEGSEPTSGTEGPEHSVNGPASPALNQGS
Description: Phosphatase assay using pNPP as substrate:
CD45 enzyme was obtained from BIOMOL (Plymouth Meeting, Pa.). Phosphatase activity was assayed in a buffer containing final concentrations of 25 mM imidazole at pH 7.0, 50 mM NaCl, 2.5 mM ethylenediaminetetraacetic acid (“EDTA”), 5 mM dithiothreitol (“DTT”) and 10 μg/mL bovine serum albumin (“BSA”) using pNPP as a substrate.

CD45 [2] = biological target: T1, CD45; test: Phosphatase assay using lck 10-mer as substrate; type: biochemical; details: pH 7.2, read-out: Ick IC50
Outline: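 Enzyme incubated with lck phosphopeptide TEGQpYQPQP for 1.5 h at room temperature in 25 mM HEPES pH 7.2, 5 mM DTT, 10 μg/mL BSA, 5% DMSO final. Compounds tested from 30 to 0.01 μM. Released phosphate detected with malachite-type Green Reagent, absorbance at 620 nm after 30 min.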

T cells (PBMC) = test: cells; type: cell-based, human; details: human PBMC, OKT3 30 ng/mL, [3H]thymidine; read-out: T cell prolif. IC50
T-cell lymphoblasts [3] = test: Cytotoxicity assay (Calcein-AM uptake); details: PHA-expanded T-cell lymphoblasts, overnight incubation, Calcein-AM
Description: (§1) Calcein-AM (Molecular Probes. Eugene, Oreg.) uptake, as a quantitative measure of cell viability, was used to evaluate the toxic effect of compounds on T cells.
(§2) The T-cell lymphoblasts were purified by separation over Lymphoprep, plated at 2×10^5/well in a round bottom 96-well plate containing RPMI with compound and incubated overnight at 37° C. in an incubator containing 5% CO2. The dilution scheme and culture media were the same as those used in the T-cell proliferation assay. After the incubation period, cells were washed with Dulbecco's phosphate-buffered saline (D-PBS) and incubated with 1 μM Calcein-AM for 30-45 mim in D-PBS as described in the technical sheet provided with The LIVE/DEAD Viability/Cytotoxicity Kit from Molecular Probes.

T-cell lymphoblasts [4] = system: T-cell lymphoblasts
Description: as §1, §2

in vitro = details: human
Description: as §1, §2

[5] = CD45 phosphatase, pNPP substrate, pH 7.0
[6] = CD45 phosphatase, lck carboxy-terminal peptide TEGQpYQPQP substrate

Row | IC50 (CD45 [1]; [5]) [nM] | IC50 (CD45 [2]; [6]) [nM] | Molecule | IC50 (T cells (PBMC)) [nM] | CC50 (T-cell lymphoblasts [3]) [nM] | CC50 (T-cell lymphoblasts [4]) [nM] | IC50 (CD45 [1]; pH 7) [nM] | CC50 (in vitro) [nM] | IC50 (CD45 [2]) [nM]
1 | 700 | 6900 | 8-(9,10-Dioxo-9,10-dihydro-phenanthren-3-ylcarbamoyl)-heptanoic Acid Methyl Ester [Example 78] | 1300 | 28000 | – | – | – | –
2 | 800 | 5200 | CCCC(=O)Nc1ccc2c(c1)-c1ccccc1C(=O)C2=O [Example 9, N-(9,10-Dioxo-9,10-dihydro-phenenathren-3-yl)-butyramide] | 800 | 9100 | – | – | – | –
3 | 2800 | 11600 | O=C1C(=O)c2ccc(NC(=O)C(Cl)(Cl)Cl)cc2-c2ccccc21 [Example 11, 2,2,2-Trichloro-N(9,10-dioxo-9,10-dihydro-phenanthren-3-yl)-acetamide] | 6500 | > 30000 | – | – | – | –
4 | 4490 | > 30000 | O=C1C(=O)c2c(-c3ccc4ccccc4c3)cccc2-c2ccccc21 [Example 19, 1 -Naphthalen-2-yl-phenanthrene-9,10-dione] | 1600 | – | 4400 | – | – | –
5 | 1600 | > 30000 | COC(=O)CCCCCCCCC(=O)Nc1ccc2c(c1)-c1ccccc1C(=O)C2=O [Example 79, 9-(9,10-Dioxo-9,10-dihydro-phenanthren-3-ylcarbamoyl)-nionanoic Acid Methyl Ester] | 500 | > 30000 | – | – | – | –
6 | – | – | O=C1C(=O)c2ccccc2-c2ccccc21 [Example 106, 9,10-Phenanthrenedione] | 300 | – | – | 700 | 1300 | 3100
